Measured values as given in ChEMBL document CHEMBL1145970 (J Med Chem, 2003).
pKi: −log10 of the molar value. Calls of active or inactive are those of the source. No cut-off for these calls is given here.

Assays:
[1] = target: T1, 5-hydroxytryptamine receptor 1A (Rattus norvegicus, UniProt P19327); assay: Binding affinity to the rat 5-hydroxytryptamine 1A receptor
T1 sequence (P19327 whole entry): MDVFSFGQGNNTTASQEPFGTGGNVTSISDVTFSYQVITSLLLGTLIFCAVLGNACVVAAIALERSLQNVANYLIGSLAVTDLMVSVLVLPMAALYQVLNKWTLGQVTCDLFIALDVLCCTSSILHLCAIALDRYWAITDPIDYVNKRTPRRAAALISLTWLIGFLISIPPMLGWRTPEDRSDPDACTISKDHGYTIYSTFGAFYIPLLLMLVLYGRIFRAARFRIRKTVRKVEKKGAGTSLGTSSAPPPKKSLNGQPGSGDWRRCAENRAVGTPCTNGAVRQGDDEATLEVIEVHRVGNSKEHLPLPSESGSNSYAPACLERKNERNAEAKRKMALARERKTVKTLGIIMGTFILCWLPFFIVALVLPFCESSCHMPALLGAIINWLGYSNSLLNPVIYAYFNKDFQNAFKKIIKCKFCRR

[2] = target: 5-hydroxytryptamine receptor 7 (Rattus norvegicus, UniProt P32305); assay: Binding affinity to the rat 5-hydroxytryptamine 7 receptor
Sequence of 5-hydroxytryptamine receptor 7 (P32305 whole entry): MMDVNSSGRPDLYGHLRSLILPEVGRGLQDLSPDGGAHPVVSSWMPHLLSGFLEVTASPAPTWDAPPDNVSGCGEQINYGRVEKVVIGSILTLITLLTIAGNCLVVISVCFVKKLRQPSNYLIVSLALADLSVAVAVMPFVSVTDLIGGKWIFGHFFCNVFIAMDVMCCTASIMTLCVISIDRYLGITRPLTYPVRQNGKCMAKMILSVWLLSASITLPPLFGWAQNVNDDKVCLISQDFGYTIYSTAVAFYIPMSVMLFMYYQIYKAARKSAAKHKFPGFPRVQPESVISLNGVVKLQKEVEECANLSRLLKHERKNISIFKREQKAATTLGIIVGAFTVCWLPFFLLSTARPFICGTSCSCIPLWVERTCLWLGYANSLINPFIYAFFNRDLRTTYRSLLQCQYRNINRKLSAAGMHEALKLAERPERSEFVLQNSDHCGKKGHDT

D(4) dopamine receptor = target: T2, D(4) dopamine receptor (Homo sapiens, UniProt P21917); assay: Binding affinity of compound was tested for Dopamine receptor D4
T2 sequence (P21917 whole entry): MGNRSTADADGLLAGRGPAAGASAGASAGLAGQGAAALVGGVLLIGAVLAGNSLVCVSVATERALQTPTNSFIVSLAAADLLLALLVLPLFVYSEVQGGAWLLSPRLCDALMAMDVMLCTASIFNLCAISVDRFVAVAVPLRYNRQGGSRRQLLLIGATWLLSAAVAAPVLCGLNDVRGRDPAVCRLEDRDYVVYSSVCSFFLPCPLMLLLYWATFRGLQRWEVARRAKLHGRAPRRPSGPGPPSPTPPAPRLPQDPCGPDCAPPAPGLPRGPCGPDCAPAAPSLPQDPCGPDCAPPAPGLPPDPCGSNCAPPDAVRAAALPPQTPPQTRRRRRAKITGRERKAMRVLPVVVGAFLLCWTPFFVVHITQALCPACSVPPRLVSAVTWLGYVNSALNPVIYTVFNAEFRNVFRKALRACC

[3] = target: 5-hydroxytryptamine receptor 2A (Rattus norvegicus, UniProt P14842); assay: Binding affinity of compound was tested for 5-hydroxytryptamine 2A receptor
Sequence of 5-hydroxytryptamine receptor 2A (P14842 whole entry): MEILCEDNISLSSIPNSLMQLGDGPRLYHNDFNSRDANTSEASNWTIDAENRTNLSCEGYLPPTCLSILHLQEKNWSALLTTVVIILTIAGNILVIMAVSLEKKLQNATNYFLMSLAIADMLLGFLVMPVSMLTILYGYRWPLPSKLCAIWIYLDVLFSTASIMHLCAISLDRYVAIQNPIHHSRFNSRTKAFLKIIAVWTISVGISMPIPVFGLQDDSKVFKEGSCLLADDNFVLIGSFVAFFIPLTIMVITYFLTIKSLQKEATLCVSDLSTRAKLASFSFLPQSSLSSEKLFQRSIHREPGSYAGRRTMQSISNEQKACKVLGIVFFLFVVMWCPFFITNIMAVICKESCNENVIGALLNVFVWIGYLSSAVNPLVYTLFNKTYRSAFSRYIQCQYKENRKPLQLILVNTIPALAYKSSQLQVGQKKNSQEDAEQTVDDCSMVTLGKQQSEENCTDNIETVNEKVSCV

[4] = target: T3, Adrenergic receptor alpha-1 (Rattus norvegicus, UniProt P15823+P23944+P43140); assay: Binding affinity of compound was tested for Alpha-1 adrenergic receptor; assay type: protein assay
T3 sequence (P15823 whole entry): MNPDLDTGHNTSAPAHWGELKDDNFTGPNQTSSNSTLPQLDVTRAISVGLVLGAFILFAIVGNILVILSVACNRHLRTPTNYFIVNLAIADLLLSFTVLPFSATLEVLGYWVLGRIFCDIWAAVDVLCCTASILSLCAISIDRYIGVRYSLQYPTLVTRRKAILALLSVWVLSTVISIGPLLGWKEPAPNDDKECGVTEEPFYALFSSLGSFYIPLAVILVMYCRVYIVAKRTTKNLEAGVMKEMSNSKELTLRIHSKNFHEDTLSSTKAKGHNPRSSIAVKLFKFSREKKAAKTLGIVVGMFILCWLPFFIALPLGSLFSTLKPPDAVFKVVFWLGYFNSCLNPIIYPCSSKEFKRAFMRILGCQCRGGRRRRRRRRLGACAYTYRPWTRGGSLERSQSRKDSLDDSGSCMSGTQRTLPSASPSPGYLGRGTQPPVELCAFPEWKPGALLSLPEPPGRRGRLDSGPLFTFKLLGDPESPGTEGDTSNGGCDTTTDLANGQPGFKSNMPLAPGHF
T3 sequence (P23944 whole entry): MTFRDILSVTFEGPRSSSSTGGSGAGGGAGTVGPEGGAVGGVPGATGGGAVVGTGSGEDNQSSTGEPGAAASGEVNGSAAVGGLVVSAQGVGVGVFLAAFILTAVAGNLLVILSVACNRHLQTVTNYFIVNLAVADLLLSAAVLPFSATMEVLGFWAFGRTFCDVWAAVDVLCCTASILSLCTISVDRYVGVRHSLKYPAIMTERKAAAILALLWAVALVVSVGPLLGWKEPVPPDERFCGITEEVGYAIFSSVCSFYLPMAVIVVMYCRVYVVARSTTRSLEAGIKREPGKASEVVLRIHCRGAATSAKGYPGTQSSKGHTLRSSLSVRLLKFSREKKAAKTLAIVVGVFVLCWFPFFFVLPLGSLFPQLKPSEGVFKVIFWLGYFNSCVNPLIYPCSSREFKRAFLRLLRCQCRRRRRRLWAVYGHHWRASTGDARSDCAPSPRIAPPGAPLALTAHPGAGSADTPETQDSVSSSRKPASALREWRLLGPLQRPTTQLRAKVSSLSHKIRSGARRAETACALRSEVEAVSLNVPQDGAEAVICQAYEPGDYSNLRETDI
T3 sequence (P43140 whole entry): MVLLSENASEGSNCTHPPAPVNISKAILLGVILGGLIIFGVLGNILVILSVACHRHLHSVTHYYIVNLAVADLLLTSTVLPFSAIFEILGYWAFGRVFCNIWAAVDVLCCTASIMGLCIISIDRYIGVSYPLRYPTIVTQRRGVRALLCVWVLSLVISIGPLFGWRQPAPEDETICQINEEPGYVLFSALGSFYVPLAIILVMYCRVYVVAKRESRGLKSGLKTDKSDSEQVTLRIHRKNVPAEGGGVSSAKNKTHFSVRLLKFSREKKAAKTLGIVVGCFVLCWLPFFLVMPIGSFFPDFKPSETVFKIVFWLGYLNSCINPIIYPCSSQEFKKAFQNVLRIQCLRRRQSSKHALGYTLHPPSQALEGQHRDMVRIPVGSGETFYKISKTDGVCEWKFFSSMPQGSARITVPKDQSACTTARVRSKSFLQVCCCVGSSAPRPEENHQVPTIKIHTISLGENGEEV

[5] = tested on: 5-hydroxytryptamine receptor 7 (Cavia porcellus); assay: Maximal relaxation effect induced by 3 uM compound on substance P stimulated guinea pig ileum with 5-hydroxytryptamine 7 receptor nondesensitization
D(3) dopamine receptor = D(3) dopamine receptor (Rattus norvegicus, UniProt P19020); assay: Binding affinity of compound was tested for Dopamine receptor D3
Sequence of D(3) dopamine receptor (P19020 whole entry): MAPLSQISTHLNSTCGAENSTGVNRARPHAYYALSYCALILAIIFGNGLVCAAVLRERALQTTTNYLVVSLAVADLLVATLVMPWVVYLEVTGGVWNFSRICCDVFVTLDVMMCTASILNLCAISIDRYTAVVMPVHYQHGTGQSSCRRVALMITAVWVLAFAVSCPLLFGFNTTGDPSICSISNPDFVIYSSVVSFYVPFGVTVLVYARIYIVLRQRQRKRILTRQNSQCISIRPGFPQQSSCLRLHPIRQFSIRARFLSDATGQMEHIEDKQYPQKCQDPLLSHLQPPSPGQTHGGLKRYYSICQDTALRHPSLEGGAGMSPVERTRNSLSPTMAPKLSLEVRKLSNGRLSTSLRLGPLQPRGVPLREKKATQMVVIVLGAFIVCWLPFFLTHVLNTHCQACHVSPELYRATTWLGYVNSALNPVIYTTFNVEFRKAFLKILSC

D(2) dopamine receptor = D(2) dopamine receptor (Homo sapiens, UniProt P14416); assay: Binding affinity of compound was tested for Dopamine receptor D2L
Sequence of D(2) dopamine receptor (P14416 whole entry): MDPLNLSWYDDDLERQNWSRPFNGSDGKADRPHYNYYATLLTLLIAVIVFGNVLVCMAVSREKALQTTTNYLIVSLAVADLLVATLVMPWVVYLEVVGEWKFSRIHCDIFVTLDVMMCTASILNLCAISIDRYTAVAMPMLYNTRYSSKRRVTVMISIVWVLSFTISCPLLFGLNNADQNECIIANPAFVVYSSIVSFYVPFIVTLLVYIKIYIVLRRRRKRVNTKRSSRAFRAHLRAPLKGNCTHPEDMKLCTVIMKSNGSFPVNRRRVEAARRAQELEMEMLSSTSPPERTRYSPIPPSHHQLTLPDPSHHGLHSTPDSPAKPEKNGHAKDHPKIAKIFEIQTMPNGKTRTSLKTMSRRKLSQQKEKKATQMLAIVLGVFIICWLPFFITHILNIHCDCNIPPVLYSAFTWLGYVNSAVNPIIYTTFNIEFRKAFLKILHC

[6] = tested on: 5-hydroxytryptamine receptor 7 (Cavia porcellus); assay: Maximal relaxation effect induced by 3 uM compound on substance P stimulated guinea pig ileum with 5-hydroxytryptamine 7 receptor desensitization
[7] = target: 5-hydroxytryptamine receptor 7 (Rattus norvegicus) (UniProt P32305); conditions: Ileum
Sequence of 5-hydroxytryptamine receptor 7 (Rattus norvegicus) (P32305 whole entry): as the sequence (P32305 whole entry) above

[8] = target: 5-hydroxytryptamine receptor 7 (Rattus norvegicus) (UniProt P32305); conditions: Ileum; remark: listed apart in the source
Description: Maximal relaxation effect induced by 3 uM compound on substance P stimulated guinea pig ileum with 5-hydroxytryptamine receptor desensitization

Compound | pKi [1] | pKi [2] | also measured
COc1ccccc1N1CCN(CCCCC(=O)c2ccccc2)CC1 | 8.15 | 7.36 | –
COc1ccccc1N1CCN(CCCCC(=O)c2ccc(O)cc2)CC1 | 7.70 | 7.23 | –
O=C(CCCCCN1CCN(c2nc3ccccc3[nH]2)CC1)c1ccccc1O | < 6.07 | 6.17 | –
COc1ccccc1N1CCN(CCCCCC(=O)c2ccccc2)CC1 | 8.19 | 7.55 | –
O=C(CCCCCN1CCN(c2cccc(C(F)(F)F)c2)CC1)c1ccccc1O | 6.55 | 6.42 | –
NCCc1c[nH]c2ccc(C(N)=O)cc12 | – | 9.29 | Relaxation [8]: inactive
COc1ccccc1N1CCN(CCCCC(=O)c2cccc(O)c2)CC1 | 8.43 | 7.82 | –
COc1cccc(C(=O)CCCCCN2CCN(c3ccccc3OC)CC2)c1 | 8.47 | 7.34 | –
COc1cccc(C(=O)CCCN2CCN(c3ccccc3OC)CC2)c1 | 9.11 | 6.96 | –
COc1cccc(C(=O)CCCCN2CCN(c3ccccc3OC)CC2)c1 | 8.47 | 7.07 | –
COc1ccccc1N1CCN(CCCCCC(=O)c2ccccc2O)CC1 | 8.24 | 8.24 | –
O=C(CCCCCN1CCN(C2CCCCC2)CC1)c1ccccc1O | < 6.07 | < 6.10 | –
COc1ccccc1N1CCN(CCCCCC(=O)c2ccc(O)cc2)CC1 | 7.85 | 7.63 | –
CN1CCN(CCCCCC(=O)c2ccccc2O)CC1 | < 6.07 | < 6.00 | –
COc1ccccc1N1CCN(CCCCCC(=O)c2cccc(O)c2)CC1 | 7.62 | 7.57 | –

Second part, led by results:

pKi [1] | pKi [2] | Compound | also measured
8.39 | 7.79 | COc1ccccc1N1CCN(CCCCC(=O)c2ccccc2O)CC1 | –
6.86 | 7.37 | O=C(CCCCCN1CCN(c2ccccc2)CC1)c1ccccc1O | –
6.04 | 7.28 | O=C(CCCCN1CCN(c2noc3ccccc23)CC1)c1ccccc1O | –
6.72 | 8.53 | O=C(CCCCCN1CCN(c2noc3ccccc23)CC1)c1ccccc1O | pKi (D(4) dopamine receptor): 6.50; pKi [3]: 8.10; Ki [4]: 96 nM; Relaxation [5]: 43%; pKi (D(3) dopamine receptor): 6.44; pKi (D(2) dopamine receptor): 6.61; Relaxation [6]: inactive
6.76 | 9.05 | COc1ccccc1C(=O)CCCCCN1CCN(c2noc3ccccc23)CC1 | pKi (D(4) dopamine receptor): 8.40; pKi [3]: 8.04; Ki [4]: 0.41 nM; pKi (D(3) dopamine receptor): 7.26; Relaxation [7]: inactive; pKi (D(2) dopamine receptor): 7.11
6.41 | 6.34 | COc1ccc2onc(N3CCN(CCCCCC(=O)c4ccccc4O)CC3)c2c1 | –
5.97 | 7.71 | O=C(CCCN1CCN(c2noc3ccccc23)CC1)c1ccccc1O | –
5.84 | 6.83 | O=C(CCCCCN1CCN(c2nc3ccccc3o2)CC1)c1ccccc1O | –
7.25 | 6.98 | O=C(CCCCCN1CCN(c2ccccn2)CC1)c1ccccc1O | –
